Tests used:
3737-TIL = assay: Co-culture of 3737-TIL with TMG-RNA-transfected autologous DCs; flow cytometry for activation markers 4-1BB and OX40; format: cell-based, human
Procedure: APCs (DCs or B cells) were harvested, washed 1× with PBS, and then resuspended in Opti-MEM (Life Technologies) at 10-30×10^6 cells/ml. IVT RNA (4 μg or 8 μg) was aliquoted to the bottom of a 2 mm gap electroporation cuvette, and 50 μl or 100 μl of APCs were added directly to the cuvette. The final RNA concentration used in electroporations was thus 80 μg/ml. Electroporations were carried out using a BTX-830 square wave electroporator. DCs were electroporated with 150 V, 10 ms, and 1 pulse, and B cells were electroporated with 150 V, 20 ms, and 1 pulse. Transfection efficiencies using these settings were routinely between 70-90% as assessed with GFP RNA (data not shown). All steps were carried out at room temperature. Following electroporation, cells were immediately transferred to polypropylene tubes containing DC- or B-cell media supplemented with the appropriate cytokines. Transfected cells were incubated overnight (12-14 h) at 37° C., 5% CO2. Cells were washed 1× with PBS prior to use in co-culture assays.
When DCs were used as APCs, approximately 3.5×10^4 to 7×10^4 DCs were used per well of a 96-well flat or round-bottom plate. When B cells were used as APCs, approximately 2×10^5 cells were used per well of a 96-well round-bottom plate. In ELISPOT assays, 1×10^3 to 1×10^4 effector T cells were used per well, and in flow cytometry assays, 1×10^5 effector T cells were used per well. T cells were typically thawed and rested in IL-2 containing 50/50 media (3000 IU/ml IL-2) for two days and then washed with PBS (3×) prior to co-culture assays. All co-cultures were performed in the absence of exogenously added cytokines. For all assays, plate-bound OKT3 (0.1 μg/ml or 1 μg/ml) was used as a positive control.
Expression of the T-cell activation markers OX40 and 4-1BB was assessed by flow cytometry at approximately t=22-26 h post-stimulation. Briefly, cells were pelleted, washed with FACS buffer (1×PBS supplemented with 1% FBS and 2 mM EDTA), and then stained with the appropriate antibodies for approximately 30 min, at 4° C. in the dark. Cells were washed at least once with FACS buffer prior to acquisition on a BD FACSCanto II flow cytometer. All data were gated on live (PI negative), single cells.
The TMG constructs were then used as templates for the generation of in vitro transcribed (IVT) RNA. Each of these IVT TMG RNAs was then individually transfected into autologous APCs (DCs) followed by a co-culture with TIL to determine whether any of the processed and presented mutated antigens were recognized by TIL. It was observed that 3737-TIL were reactive to a mutated antigen present in TMG-1, but not TMG-2 or TMG-3 (FIG. 1A). […] Tables 4A and 4B show the percentage of 3737-TIL detected by flow cytometry as having the indicated phenotype following coculture with DCs cultured with the non-specific stimulator OKT3 or DCs transfected with green fluorescent protein (GFP) RNA, or the indicated tandem mini-gene (TMG) construct encoding the various mutations identified by whole-exomic sequencing. Mock-transfected cells were treated with transfection reagent only without addition of nucleic acid. Data were gated on live CD3+ cells.
3737-TIL were co-cultured with DCs transfected with TMG-1 or TMG-1 encoding the wild-type (wt) ERBB2IP reversion, and flow cytometry was used to assess OX40 and Vβ22 expression on CD4+ T cells at 24 hours post-stimulation. Plate-bound OKT3 stimulation was used as a positive control.

Re-treatment TIL = assay: Intracellular TNF staining of re-treatment TIL co-cultured with peptide-pulsed autologous B cells; format: cell-based, human; conditions: 6 h, CD4+ population
Procedure: Autologous B cells were harvested, washed, and then resuspended at 1×10^6 cells/ml in B-cell media supplemented with IL-4, and then incubated with 1 μg/ml of a 25-mer peptide overnight (12-14 h) at 37° C., 5% CO2. After overnight pulsing, B cells were then washed 2× with PBS, and then resuspended in T-cell media and immediately used in co-culture assays. The peptides used were: mutated ERBB2IP ([…] (SEQ ID NO: 73)); wild-type ERBB2IP ([…] (SEQ ID NO: 45)); and, as a negative control, mutated ALK ([…] (SEQ ID NO: 46)). The mutated ERBB2IP peptide was purchased from three different sources (GenScript, Piscataway, N.J., Peptide 2.0, Chantilly, Va., and SelleckChem, Houston Tex.) with all yielding the same in vitro results, while the wild-type ERBB2IP and mutated ALK peptides were purchased from Peptide 2.0. For culturing allogeneic EBV-B cells, RPMI media containing 10% FBS, 100 U/ml penicillin and 100 μg/ml streptomycin (Life Technologies), 10 μg/ml gentamicin (CellGro), and 2 mM L-glutamine was used instead of B-cell media.
Cytokine production was assessed using intracellular cytokine staining (ICS) and flow cytometry. Briefly, after target and effector cells were combined in the wells of a 96-well plate, both GolgiStop and GolgiPlug were added to the culture (BD Biosciences). GolgiStop and GolgiPlug were used at ½ of the concentration recommended by the manufacturer. At t=6 h post stimulation, cells were processed using the Cytofix/Cytoperm kit (BD Biosciences, San Jose, Calif.) according to the manufacturer's instructions. Briefly, cells were pelleted, washed with FACS buffer, and then stained for cell surface markers (described above). Cells were then washed 2× with FACS buffer prior to fixation and permeabilization. Cells were then washed with Perm/Wash buffer and stained with antibodies against cytokines for 30 min, at 4° C. in the dark. Cells were washed 2× with Perm/Wash buffer and resuspended in FACS buffer prior to acquisition on a FACSCantoII flow cytometer. All flow cytometry data were analyzed using FLOWJO software (TreeStar Inc).
Flow cytometric analysis of the TIL-product used for re-treatment was performed. […] Re-treatment TIL were co-cultured for 6 h with autologous B cells pulsed overnight with wild-type (wt) or mutated (mut) ERBB2IP 25-AA long peptides. Flow cytometry was used to detect intracellular TNF production in the CD4+ population (Table 20).

[1] = 3737-TIL CD4+ T cells, 24 hours post-stimulation
[2] = percentage of 3737-TIL after co-culture with transfected DCs or OKT3, gated on live CD3+ cells

Substance	Vβ22+/OX40+ (3737-TIL; [1])	Vβ22+/OX40− (3737-TIL; [1])	Vβ22−/OX40+ (3737-TIL; [1])	Vβ22−/OX40− (3737-TIL; [1])	4-1BB+/CD4+ (3737-TIL; [2])	4-1BB+/CD4− (3737-TIL; [2])	4-1BB−/CD4+ (3737-TIL; [2])	4-1BB−/CD4− (3737-TIL; [2])	OX40+/CD4+ (3737-TIL; [2])	OX40+/CD4− (3737-TIL; [2])	OX40−/CD4+ (3737-TIL; [2])	OX40−/CD4− (3737-TIL; [2])	Vβ22+/TNF+ (Re-treatment TIL)	Vβ22+/TNF− (Re-treatment TIL)	Vβ22−/TNF+ (Re-treatment TIL)	Vβ22−/TNF− (Re-treatment TIL)
OKT3: anti-CD3 antibody, non-specific stimulator, plate-bound positive control	44%	6%	31%	19%	32%	41%	23%	4%	45%	6%	11%	38%				
TSFLSINSKEETEHLENGNKYPNLE [wtERBB2IP]													0%	98%	0%	2%
TSFLSINSKEETGHLENGNKYPNLE [mutERBB2IP]													93%	3%	3%	1%

— patent US20170218042A1, “METHODS OF ISOLATING T CELL RECEPTORS HAVING ANTIGENIC SPECIFICITY FOR A CANCER-SPECIFIC MUTATION” (The United State of America, as represented by the …, priority 2014, published 2017)
